Results taken from PubChem BioAssay (NCI).
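In this assay, cells in 96-well plates receive the compound at five concentrations for 48 hours. Endpoints are linearly interpolated between the surrounding concentrations. Here, GI50 denotes the concentration required for 50% inhibition of growth. At the TGI there is no net growth.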 Where a SMILES comes first, the peptide text is derived from it. The star is where a group is joined. Boc = CC(C)(C)OC(=O)*

What was measured:
Assay in all cases: growth of human tumour cells (NCI), 48 h
[1] = test system: SF-539 CNS
[2] = test system: SK-MEL-5 melanoma
[3] = test system: TK-10 renal
[4] = test system: HCC-2998 colon
[5] = test system: MDA-N
[6] = test system: NCI-H226 lung
[7] = test system: NCI-H522 lung
[8] = test system: UACC-257 melanoma
[9] = test system: NCI/ADR-RES ovarian
[10] = test system: RPMI-8226 leukemia

SMILES | TGI [1] [µM] | TGI [2] [µM] | TGI [3] [µM] | TGI [4] [µM] | TGI [5] [µM] | TGI [6] [µM] | TGI [7] [µM] | TGI [8] [µM] | TGI [9] [µM] | TGI [10] [µM] | GI50 [1] [µM] | GI50 [2] [µM] | GI50 [3] [µM] | GI50 [4] [µM] | GI50 [6] [µM] | GI50 [10] [nM] | GI50 [7] [nM] | GI50 [8] [µM] | GI50 [9] [nM]
CCN(CCO)CC1COc2ccccc2O1 (configuration not stated) | > 100 | > 100 | > 100 | > 100 | > 100 | > 100 | > 100 | > 100 | > 100 |  |  |  |  |  |  |  |  |  | 
C=CCOC(=O)CC[N+]1=CCC(c2ccccc2)(c2ccccc2)O1 | > 100 | > 100 | > 100 | > 100 | > 100 | > 100 | > 100 | > 100 |  |  |  |  |  |  |  |  |  |  | 
CC(=O)N/N=C1\NC(=O)C[C@H]2[C@@H]3CC=C4C[C@@H](OC(C)=O)CC[C@]4(C)[C@H]3CC[C@]12C | 25.9 | > 100 | 41.7 |  | > 100 | 54.6 | > 100 | > 100 | > 100 | > 100 |  |  |  |  |  |  |  |  | 
COc1ccc2cc(-c3ccc(-c4ccc(C(=N)N)s4)s3)ccc2c1 | 19.2 | 30.2 | 29.2 | 11.7 |  | 59.3 | 4.57 | 35.4 | 4.87 | 5.06 | 3.91 | 16.1 | 14.2 | 3.35 | 23.6 | 2160 | 1920 | 19.6 | 2290
O=C(c1cc2ccccc2cc1O)N1CCCCC1 | > 100 | 54.6 | > 100 | 49.8 |  | 85.9 |  | > 100 | 94.3 | 56.3 |  |  |  |  |  |  |  |  | 
O=C(CNc1ccccc1Cl)Nn1c(-c2ccccc2)nc2ccccc2c1=O | 43.6 | 21.8 | > 100 | 39.8 |  | 81.1 | > 10 | > 100 |  | > 100 |  |  |  |  |  |  |  |  | 
CN(C)c1ccc(C=C2N=C(c3ccccc3)N(c3cc(C(=O)c4ccccc4)ccc3N3C(=O)/C(=C/c4ccc(N(C)C)cc4)N=C3c3ccccc3)C2=O)cc1 | 6.05 | > 100 | > 100 | 22.7 | 6.03 |  |  | > 100 | 85.1 | 8.86 |  |  |  |  |  |  |  |  | 
BrC/C=C/C[P+](c1ccccc1)(c1ccccc1)c1ccccc1 | 22.4 | 39.8 | 42 | > 100 |  |  | 51.3 | > 100 |  | > 100 |  |  |  |  |  |  |  |  | 
Clc1ccc(-c2nn3c(-c4ccncc4)nnc3s2)cc1 | > 100 | > 100 | > 100 |  | > 100 | > 100 | > 100 | > 100 | > 100 | > 100 |  |  |  |  |  |  |  |  | 
Cc1nn(C(=O)Cc2ccccc2)c2c1C(c1ccc(O)cc1)SC(N)=N2 (configuration not stated) | > 100 | > 100 | > 100 | > 100 | > 100 | > 100 | > 100 | > 100 |  | > 100 |  |  |  |  |  |  |  |  | 
O=C(NCCN1CCOCC1)c1ccc2cc(C(=O)N3CC(CCl)c4ccc([N+](=O)[O-])cc43)[nH]c2c1 (configuration not stated) | > 100 | 4.73 | 36.6 | 29.7 |  | > 100 | 39.7 | 86.8 | > 100 | 9.09 |  |  |  |  |  |  |  |  | 
COc1cc(C2SCC(=O)N2c2ccc(NC(=O)c3ccc(N4C(=O)CSC4c4cc(OC)c(OC)c(OC)c4)cc3)cc2)cc(OC)c1OC (configuration not stated) | > 100 | > 100 | > 100 | > 100 | 64 |  | > 100 | > 100 | 70.6 | > 100 |  |  |  |  |  |  |  |  | 
CC(C)(C)OC(=O)NCC(=O)NCC(=O)NCC(=O)NCC(=O)O (Boc-GGGG-OH) | > 100 | > 100 | > 100 | > 100 |  |  | > 100 | > 100 | > 100 | > 100 |  |  |  |  |  |  |  |  | 
N=S(c1ccccc1)c1ccccc1[N+](=O)[O-] (configuration not stated) | 37.8 | 28.5 | 34.8 | 33.4 |  | 25.4 | 11.7 | 32.2 |  | 54.6 |  |  |  |  |  |  |  |  | 
C=CCNC(=S)/N=C/c1c(O)c2ccccc2oc1=O | > 100 | > 100 | > 100 | > 100 |  | > 100 | > 100 | > 100 |  | > 100 |  |  |  |  |  |  |  |  | 
COc1cc(C2CC(C)(Nc3ccccc3)Oc3cc4c(cc32)OCO4)cc(OC)c1OC (configuration not stated) | 0.477 | 8.01 | > 100 | 3.98 | 0.183 | 7.12 | 10.7 | > 85.2 |  | 50.1 |  |  |  |  |  |  |  |  | 
O=c1ccc2cc3ccc4cccc5ccc(c2o1)c3c45 | 21.9 | > 100 | > 100 |  |  | 58.3 | > 100 |  |  | > 100 |  |  |  |  |  |  |  |  | 
Brc1cccc(Nc2nc(-c3cccs3)nc3ccc(Br)cc23)c1 | > 100 | 30.9 | 88 | 42.1 |  | > 100 | 54.9 | 74 | > 100 | > 100 |  |  |  |  |  |  |  |  | 
COc1ccc(C#CC(=O)O)c(OC)c1 | > 100 | > 100 | > 100 | > 100 | > 100 | > 100 |  | > 100 | > 100 | > 100 |  |  |  |  |  |  |  |  | 
Cc1c2c(n(CCc3ccc(Cl)cc3)c1C)NN=C(C#N)S2(=O)=O | > 100 | > 100 | > 100 | > 100 | > 100 | > 100 |  | > 100 | > 100 | > 100 |  |  |  |  |  |  |  |  | 
Cc1cc(=O)c2c([nH]1)NS(=O)(=O)NC2=O | > 100 |  | > 100 | > 100 |  | > 100 | > 100 | > 100 |  | > 100 |  |  |  |  |  |  |  |  | 
O=c1c2ccccc2nc2[nH][nH]c(=S)n12 | > 100 | > 100 | > 100 |  | > 100 | > 100 |  | > 100 | > 100 | > 100 |  |  |  |  |  |  |  |  | 
